According to patent publication US20210244720A1, “Therapeutic Tyrosine Kinase Inhibitors for Relapsing Multiple Sclerosis (RMS)” (Genzyme Corporation, priority 2020, published 2021):

Columns and labels:
[1] = Pharmacokinetics in RMS patients, fed versus fasting status; type: in vivo, human; settings: RMS patients of the Phase 2b study
Procedure: An additional PK sample is collected 3 hours post-dose (±0.5 hour) at visits during Weeks 4 and 12 for all participants in both cohorts. Data of the most recent meal prior to PK sampling are noted in the eCRF.
Additional PK parameters such as Cmax, […], and AUC at steady state are estimated using a population PK approach.
Samples from the two groups were obtained and anaylzed to evaluate pharmacokinetics parameters as described in Example 1.10 above.

[2] = biological target: T1, CYP2C8 (Homo sapiens, UniProt P10632); test: Preclinical drug metabolism studies, CYP2C8; type: in vitro ADME
T1 sequence (P10632 1-490): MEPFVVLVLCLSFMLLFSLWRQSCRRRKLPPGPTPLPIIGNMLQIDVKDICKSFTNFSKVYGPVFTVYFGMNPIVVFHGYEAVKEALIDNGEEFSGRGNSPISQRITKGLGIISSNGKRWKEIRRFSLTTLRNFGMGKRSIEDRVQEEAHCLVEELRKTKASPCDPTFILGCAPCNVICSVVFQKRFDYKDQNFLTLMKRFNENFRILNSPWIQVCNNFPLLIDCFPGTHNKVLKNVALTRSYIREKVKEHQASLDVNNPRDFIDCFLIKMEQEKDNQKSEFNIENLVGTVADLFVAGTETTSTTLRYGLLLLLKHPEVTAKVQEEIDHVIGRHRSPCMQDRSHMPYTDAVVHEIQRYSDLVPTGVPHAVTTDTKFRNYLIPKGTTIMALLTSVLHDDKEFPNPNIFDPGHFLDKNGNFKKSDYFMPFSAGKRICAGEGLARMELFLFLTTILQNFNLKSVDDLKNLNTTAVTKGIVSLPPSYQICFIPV
Text: See Table 12 for the list of drugs not to be used.

[3] = system: RGS1 mRNA in naive mouse microglia; test: Naive primary mouse microglia, RGS1 quantitative Real time PCR; type: cell-based; settings: 2.5 μM, 6 and 24 hours
Procedure: Primary mouse microglia were prepared from postnatal mice as described above, and were treated with 2.5 μM of the BTKi inhibitor for 6 and 24 hours. RNA was isolated and was analyzed by quantitative Real time PCR (Taqman, Thermo Fisher).

[4] = system: RGS1 mRNA in brain; test: In vivo mouse study, brain RGS1 Real-time PCR; settings: naive mice, oral, once a day for 5 days, 0.6, 6, and 24 mg/kg
Procedure: Mice were sacrificed on day 5, 1 h post-final dose, and PBS perfused before brain was isolated. RNA was isolated from brain using the Rneasy Lipid tissue RNA isolation kid (Qiagen). RGS1 was quantified using Real-time PCR and Taqman probe (FIG. 6; one-way ANOVA, **p<0.01).

[5] = system: RGS1 and BTK-dependent gene signature in primary mouse microglial cells; settings: 2.5 μM, IgG 50 μg/mL, 24 h, FPKM
Text: Primary cultures of microglia were obtained from brains of C57BL/6 postnatal mice. The mice were anesthetized with CO2 and subsequently decapitated with sterilized scissors. Brains were harvested and meninges were removed. The brains were placed in ice cold complete DMEM/F12 medium and kept on ice until processing.
The brains were removed from the medium by filtering through a 40 μm cell strainer. […] The dissociation reaction was quenched with an equal volume of complete DMEM/F12. The tissue was centrifuged at 300×g for 7 minutes. The tissue pellet was washed 3 times with complete DMEM/F12, centrifuged at 300×g for 7 minutes. After the final wash, tissue pellet was re-suspended in complete DMEM/F12 (˜1 mL/brain), triturated until no chunks are visible, then filtered through a 70 μm cell strainer. […]
The single cell suspensions were filtered through 70 μm cell strainers, centrifuged at 200×g for 6 minutes, and re-suspended at 1×10^8 cells/mL in separation media. […] After the last wash, the labeled CD11b+ microglia cells were resuspended in serum free NbActiv1 media, counted and re-suspended at the desired concentration. […]
Analysis of the RNASeq library data was conducted within Omicsoft's Array Studio platform following a standard RNAseq protocol. In general, the sequencing reads were quality checked and the samples were mapped to the mouse mm10 reference genome using the ENSEMBL.R89 gene model. […]

[6] = system: CD19+ B-cell counts; test: Phase 1 absolute CD19+ B-cell counts
Text: Dose regimen: The dose range chosen for this study is informed by several assessments.

[7] = system: participants with relapsing multiple sclerosis (RMS); test: Phase 2b dose-finding study in RMS: brain MRI lesion counts; settings: for New Gd-enhancing T1-hyperintense lesions: patients with 0 lesions, % / New Gd-enhancing T1-hyperintense lesions: patients with 1 lesion, % / New Gd-enhancing T1-hyperintense lesions: patients with 2 lesions, % / New Gd-enhancing T1-hyperintense lesions: patients with >=3 lesions, % / New or enlarging T2 lesions: patients with 0 lesions, % / New or enlarging T2 lesions: patients with 1 lesion, % / New or enlarging T2 lesions: patients with 2 lesions, % / New or enlarging T2 lesions: patients with >=3 lesions, % / Total Gd-enhancing T1-hyperintense lesions: patients with 0 lesions, % / Total Gd-enhancing T1-hyperintense lesions: patients with 1 lesion, % / Total Gd-enhancing T1-hyperintense lesions: patients with 2 lesions, % / Total Gd-enhancing T1-hyperintense lesions: patients with >=3 lesions, %: after 12 weeks
Procedure: People diagnosed with RMS are eligible for enrollment as long as they meet all inclusion and no exclusion criteria.
Cranial (brain) MRI with and without Gd contrast is performed. Basic MRIs are performed for all participants at all study sites and consist of T2- and T1-weighted sequences without and with Gd contrast.
New T1 Gd-enhancing hyperintense and new and enlarging T2 lesions are evaluated at each visit as per the SoA (Table 1), comparing lesion count to that from the previous MRI scan. Unless specified otherwise, the baseline brain MRI is used as the reference to assess all MRI-derived endpoints. The baseline MRI is the last MRI performed before the randomization visit. Standardized endpoint evaluation is assured by central review of brain MRI scans. Blinded central review is performed for all MRI-derived endpoints. Magnetic resonance imaging reviewers are blinded to treatment assignments and to other participant data.
The first step of this procedure tests for an efficacy signal (compared to the null hypothesis of a flat, no dose-response curve) in a procedure that controls the type 1 error. […] The second step is the Dose estimation of the dose-response curve, provided that an efficacy signal is established in the first step.
The 4-week post-randomization placebo data from Cohort 2 (i.e., Week 4 data from Cohort 2) is utilized as the placebo data at Week 12 in analysis, under the assumption of a constant rate of Gd-enhancing T1-hyperintense lesion formation if participants would be receiving placebo over 12 weeks. Participants in Cohort 2 contribute to the placebo data (at Week 4) as well as the data for 4 BTK inhibitor doses (at Week 16). […] If step 1 yields significant results, the best fitting model from the 6 predefined candidate models is chosen using the generalized Akaike information criterion (AIC).
The first step of this procedure tested for an efficacy signal (compared to the null hypothesis of a flat, no dose-response curve) in a procedure that controls the type 1 error.
The MRI assessments were excluded from the analyses if the participant was receiving systemic corticosteroids within the 30 days prior to the MRI assessment date. The 4-week post-randomization placebo data from Cohort 2 (i.e., Week 4 data from Cohort 2) was utilized as the placebo data at Week 12 in analysis under the assumption of a constant rate of Gd-enhancing T1-hyperintense lesion formation if participants were to receive placebo over 12 weeks. Participants in Cohort 2 contributed to the placebo data (at Week 4) as well as the data for 4 BTK inhibitor doses (at Week 16). The 4-week placebo run-out data from Cohort 1 was not included in the analysis. […] Test statistics and adjusted p-values were provided for all 6 candidate models.
For each secondary endpoint, a similar negative binomial model and the MCP-Mod procedure were used. As it is reasonable to assume a constant rate of lesion formation over 12 weeks under placebo treatment, the same approach as that utilized for the primary endpoint was used, i.e., using the Week 4 data in Cohort 2 as the Week 12 placebo data while accounting for within-participant correlation. Descriptive summary statistics over time were provided for each of the 4 BTK inhibitor dose groups.

C=CC(=O)N1CCC[C@@H](n2c(=O)n(-c3ccc(Oc4ccccc4)cc3)c3c(N)nccc32)C1 [the BTK inhibitor, (R)-1-(1-acryloylpiperidin-3-yl)-4-amino-3-(4-phenoxyphenyl)-1H-imidazo[4,5-c]pyridin-2(3H)-one]
median AUC, fed state compared to fasted state [1]: substantially increased | CYP2C8 metabolism [2]: substrate | RGS1 mRNA level in naive mouse microglia [3]: reduced | RGS1 mRNA expression in brain [4]: reduction of RGS1 mRNA expression was observed | RGS1 mRNA expression upregulated with IgG treatment [5]: blocked | dose at which the dose-response relationship for the CD19+ B-cell increase is maximal [6]: approximately 30 mg once daily | New Gd-enhancing T1-hyperintense lesions: patients with 0 lesions, % ([7]; 5 mg daily): (71.0) % | New Gd-enhancing T1-hyperintense lesions: patients with 1 lesion, % ([7]; 5 mg daily): (6.5) % | New Gd-enhancing T1-hyperintense lesions: patients with 2 lesions, % ([7]; 5 mg daily): (9.7) % | New Gd-enhancing T1-hyperintense lesions: patients with >=3 lesions, % ([7]; 5 mg daily): (12.9) % | New or enlarging T2 lesions: patients with 0 lesions, % ([7]; 5 mg daily): (61.3) % | New or enlarging T2 lesions: patients with 1 lesion, % ([7]; 5 mg daily): (9.7) % | New or enlarging T2 lesions: patients with 2 lesions, % ([7]; 5 mg daily): (12.9) % | New or enlarging T2 lesions: patients with >=3 lesions, % ([7]; 5 mg daily): (16.1) % | Total Gd-enhancing T1-hyperintense lesions: patients with 0 lesions, % ([7]; 5 mg daily): (64.5) % | Total Gd-enhancing T1-hyperintense lesions: patients with 1 lesion, % ([7]; 5 mg daily): (12.9) % | Total Gd-enhancing T1-hyperintense lesions: patients with 2 lesions, % ([7]; 5 mg daily): (6.5) % | Total Gd-enhancing T1-hyperintense lesions: patients with >=3 lesions, % ([7]; 5 mg daily): (16.1) % | New Gd-enhancing T1-hyperintense lesions: patients with 0 lesions, % ([7]; 15 mg daily): (67.7) % | New Gd-enhancing T1-hyperintense lesions: patients with 1 lesion, % ([7]; 15 mg daily): (16.1) % | New Gd-enhancing T1-hyperintense lesions: patients with 2 lesions, % ([7]; 15 mg daily): (3.2) % | New Gd-enhancing T1-hyperintense lesions: patients with >=3 lesions, % ([7]; 15 mg daily): (12.9) % | New or enlarging T2 lesions: patients with 0 lesions, % ([7]; 15 mg daily): (48.4) % | New or enlarging T2 lesions: patients with 1 lesion, % ([7]; 15 mg daily): (22.6) % | New or enlarging T2 lesions: patients with 2 lesions, % ([7]; 15 mg daily): (9.7) % | New or enlarging T2 lesions: patients with >=3 lesions, % ([7]; 15 mg daily): (19.4) % | Total Gd-enhancing T1-hyperintense lesions: patients with 0 lesions, % ([7]; 15 mg daily): (64.5) % | Total Gd-enhancing T1-hyperintense lesions: patients with 1 lesion, % ([7]; 15 mg daily): (19.4) % | Total Gd-enhancing T1-hyperintense lesions: patients with >=3 lesions, % ([7]; 15 mg daily): (16.1) % | New Gd-enhancing T1-hyperintense lesions: patients with 0 lesions, % ([7]; 30 mg daily): (81.8) % | New Gd-enhancing T1-hyperintense lesions: patients with 1 lesion, % ([7]; 30 mg daily): (12.1) % | New Gd-enhancing T1-hyperintense lesions: patients with 2 lesions, % ([7]; 30 mg daily): (3.0) % | New Gd-enhancing T1-hyperintense lesions: patients with >=3 lesions, % ([7]; 30 mg daily): (3.0) % | New or enlarging T2 lesions: patients with 0 lesions, % ([7]; 30 mg daily): (72.7) % | New or enlarging T2 lesions: patients with 1 lesion, % ([7]; 30 mg daily): (15.2) % | New or enlarging T2 lesions: patients with 2 lesions, % ([7]; 30 mg daily): (3.0) % | New or enlarging T2 lesions: patients with >=3 lesions, % ([7]; 30 mg daily): (9.1) % | Total Gd-enhancing T1-hyperintense lesions: patients with 0 lesions, % ([7]; 30 mg daily): (75.8) % | Total Gd-enhancing T1-hyperintense lesions: patients with 1 lesion, % ([7]; 30 mg daily): (12.1) % | Total Gd-enhancing T1-hyperintense lesions: patients with 2 lesions, % ([7]; 30 mg daily): (6.1) % | Total Gd-enhancing T1-hyperintense lesions: patients with >=3 lesions, % ([7]; 30 mg daily): (6.1) % | New Gd-enhancing T1-hyperintense lesions: patients with 0 lesions, % ([7]; 60 mg daily): (90.3) % | New Gd-enhancing T1-hyperintense lesions: patients with 1 lesion, % ([7]; 60 mg daily): (6.5) % | New Gd-enhancing T1-hyperintense lesions: patients with 2 lesions, % ([7]; 60 mg daily): (3.2) % | New or enlarging T2 lesions: patients with 0 lesions, % ([7]; 60 mg daily): (87.1) % | New or enlarging T2 lesions: patients with 1 lesion, % ([7]; 60 mg daily): (3.2) % | New or enlarging T2 lesions: patients with 2 lesions, % ([7]; 60 mg daily): (9.7) % | Total Gd-enhancing T1-hyperintense lesions: patients with 0 lesions, % ([7]; 60 mg daily): (87.1) % | Total Gd-enhancing T1-hyperintense lesions: patients with 1 lesion, % ([7]; 60 mg daily): (3.2) % | Total Gd-enhancing T1-hyperintense lesions: patients with 2 lesions, % ([7]; 60 mg daily): (6.5) % | Total Gd-enhancing T1-hyperintense lesions: patients with >=3 lesions, % ([7]; 60 mg daily): (3.2) % | dose-response relationship, reduction in number of new active Gd-enhancing T1-hyperintense brain lesions ([7]; 5-60 mg once daily, 12 weeks): demonstrating a dose-response relationship | new Gd-enhancing T1-hyperintense lesions in patients with higher AUC ([7]; patients with higher exposure): very few or no new Gd-enhancing T1-hyperintense lesions
